# According to patent US6737383B1, “Herbicidal oxadiazolidines” (priority 1999, dated 2004):
# Legend:
# morningglory = test: Test B pre/postemergence morningglory; format: in vivo, Ipomoea hederacea
# Method in brief: (§1)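 Herbicidal effect was estimated by eye on a ten-point control scale after plants spent twelve to sixteen days in a greenhouse following soil or foliar treatment. Foliar sprays targeted plants at one to four leaves; all doses were formulated in a non-phytotoxic solvent with surfactant.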
# purple nutsedge = test: Test B pre/postemergence purple nutsedge; format: in vivo, Cyperus rotundus
# Method in brief: as §1
# bedstraw = test: Test B pre/postemergence bedstraw; format: in vivo, Galium aparine; details: Postemergence
# Method in brief: as §1
# wild oat = test: Test B pre/postemergence wild oat; format: in vivo, Avena fatua
# Method in brief: as §1
# velvetleaf = test: Test B pre/postemergence velvetleaf; format: in vivo, Abutilon theophrasti
# Method in brief: as §1
# rape = test: Test B pre/postemergence rape; format: in vivo, Brassica napus
# Method in brief: as §1
# blackgrass = test: Test B pre/postemergence blackgrass; format: in vivo, Alopecurus myosuroides
# Method in brief: as §1
# soybean = test: Test B pre/postemergence soybean; format: in vivo, Glycine max
# Method in brief: as §1
# crabgrass = test: Test B pre/postemergence crabgrass; format: in vivo, Digitaria sanguinalis
# Method in brief: as §1
# pigweed = test: Test B pre/postemergence pigweed; format: in vivo, Amaranthus retroflexus
# Method in brief: as §1
# rice = test: Test B flood test rice; format: in vivo, Oryza sativa
# Method in brief: (§2)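 Flood test on plants grown to the 2-leaf stage; treated plants kept in greenhouse twelve to sixteen days, then visually rated against controls on a 0 (no effect) to 10 (complete control) scale.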
# corn = test: Test B pre/postemergence corn; format: in vivo, Zea mays
# Method in brief: as §1
# duck salad = test: Test B flood test duck salad; format: in vivo, Heteranthera limosa
# Method in brief: as §2
# wheat = test: Test B pre/postemergence wheat; format: in vivo, Triticum aestivum
# Method in brief: as §1
# giant foxtail = test: Test B pre/postemergence giant foxtail; format: in vivo, Setaria faberii
# Method in brief: as §1
# surinam grass = test: Test B pre/postemergence surinam grass; format: in vivo, Brachiaria decumbens
# Method in brief: as §1
# [1] = Postemergence, Rate 250 g/ha, scale 0 to 10
# [2] = Postemergence, Rate 500 g/ha, scale of 0 to 10 where 0 is no effect and 10 is complete control
# [3] = Preemergence, Rate 62 g/ha, scale 0 to 10 (0 no effect, 10 complete control)
# [4] = Preemergence, Rate 125 g/ha, scale of 0 to 10 where 0 is no effect and 10 is complete control
# [5] = Preemergence, Rate 250 g/ha, scale 0 to 10, 0 is no effect, 10 is complete control
# [6] = Preemergence, Rate 500 g/ha, scale 0 to 10, 0 is no effect, 10 is complete control
# [7] = Rate 125 g/ha, Postemergence, scale 0 to 10, 0 is no effect, 10 is complete control
# [8] = Rate 62 g/ha, Postemergence, scale of 0 to 10 where 0 is no effect and 10 is complete control
# [9] = Postemergence block (flood test species), Rate 250 g/ha, scale 0 to 10
# [10] = Postemergence section (flood test species), Rate 500 g/ha, scale of 0 to 10 where 0 is no effect and 10 is complete control
# [11] = Rate 125 g/ha, Postemergence section (flood test species), scale 0 to 10, 0 is no effect, 10 is complete control
structure (smiles),measurement,setting,value
CC(C)N(C(=O)n1oc(=O)n(CC#N)c1=O)c1ccccc1 [Compound 434],Morningglory plant response rating,morningglory; [1],1
same,Morningglory plant response rating,morningglory; [2],1
same,"Plant response rating, Morningglory",morningglory; [3],0
same,"Plant response rating, Morningglory",morningglory; [4],0
same,Morningglory plant response rating,morningglory; [5],0
same,Morningglory plant response rating,morningglory; [6],0
same,Morningglory plant response rating,morningglory; [7],0
same,Nutsedge plant response rating,purple nutsedge; [1],0
same,Nutsedge plant response rating,purple nutsedge; [2],0
same,"Plant response rating, Nutsedge",purple nutsedge; [3],0
same,"Plant response rating, Nutsedge",purple nutsedge; [4],0
same,Nutsedge plant response rating,purple nutsedge; [5],0
same,Nutsedge plant response rating,purple nutsedge; [6],0
same,Nutsedge plant response rating,purple nutsedge; [7],0
same,Bedstraw plant response rating,"bedstraw; Rate 62 g/ha, scale of 0 to 10 where 0 is no effect and 10 is complete control",0
same,Bedstraw plant response rating,"bedstraw; Rate 125 g/ha, scale 0 to 10, 0 is no effect, 10 is complete control",0
same,Wild oats plant response rating,wild oat; [1],0
same,Wild oats plant response rating,wild oat; [2],0
same,"Plant response rating, Wild oats",wild oat; [3],0
same,"Plant response rating, Wild oats",wild oat; [4],0
same,Wild oats plant response rating,wild oat; [5],0
same,Wild oats plant response rating,wild oat; [6],0
same,Wild oats plant response rating,wild oat; [7],0
same,Velvetleaf plant response rating,velvetleaf; [1],0
same,Velvetleaf plant response rating,velvetleaf; [2],0
same,"Plant response rating, Velvetleaf",velvetleaf; [3],0
same,"Plant response rating, Velvetleaf",velvetleaf; [4],0
same,Velvetleaf plant response rating,velvetleaf; [5],0
same,Velvetleaf plant response rating,velvetleaf; [6],0
same,Velvetleaf plant response rating,velvetleaf; [7],0
same,Rape plant response rating,rape; [1],0
same,Rape plant response rating,rape; [2],0
same,"Plant response rating, Rape",rape; [3],0
same,"Plant response rating, Rape",rape; [4],0
same,Rape plant response rating,rape; [5],0
same,Rape plant response rating,rape; [6],0
same,Rape plant response rating,rape; [7],0
same,Blackgrass plant response rating,blackgrass; [1],0
same,Blackgrass plant response rating,blackgrass; [2],0
same,"Plant response rating, Blackgrass",blackgrass; [3],0
same,"Plant response rating, Blackgrass",blackgrass; [4],0
same,Blackgrass plant response rating,blackgrass; [5],0
same,Blackgrass plant response rating,blackgrass; [6],0
same,Blackgrass plant response rating,blackgrass; [8],0
same,Blackgrass plant response rating,blackgrass; [7],0
same,Soybean plant response rating,soybean; [1],1
same,Soybean plant response rating,soybean; [2],1
same,"Plant response rating, Soybean",soybean; [3],0
same,"Plant response rating, Soybean",soybean; [4],0
same,Soybean plant response rating,soybean; [5],0
same,Soybean plant response rating,soybean; [6],0
same,Soybean plant response rating,soybean; [7],0
same,Crabgrass plant response rating,crabgrass; [1],1
same,Crabgrass plant response rating,crabgrass; [2],4
same,"Plant response rating, Crabgrass",crabgrass; [3],0
same,"Plant response rating, Crabgrass",crabgrass; [4],0
same,Crabgrass plant response rating,crabgrass; [5],0
same,Crabgrass plant response rating,crabgrass; [6],1
same,Crabgrass plant response rating,crabgrass; [8],0
same,Crabgrass plant response rating,crabgrass; [7],0
same,Redroot pigweed plant response rating,pigweed; [1],0
same,Redroot pigweed plant response rating,pigweed; [2],0
same,"Plant response rating, Redroot pigweed",pigweed; [3],0
same,"Plant response rating, Redroot pigweed",pigweed; [4],0
same,Redroot pigweed plant response rating,pigweed; [5],0
same,Redroot pigweed plant response rating,pigweed; [6],4
same,Redroot pigweed plant response rating,pigweed; [7],0
same,Rice plant response rating,rice; [9],0
same,Rice plant response rating,rice; [10],0
same,Rice plant response rating,rice; [11],0
same,Corn plant response rating,corn; [1],0
same,Corn plant response rating,corn; [2],0
same,"Plant response rating, Corn",corn; [3],0
same,"Plant response rating, Corn",corn; [4],0
same,Corn plant response rating,corn; [5],0
same,Corn plant response rating,corn; [6],0
same,Corn plant response rating,corn; [8],0
same,Corn plant response rating,corn; [7],0
same,Ducksalad plant response rating,duck salad; [9],0
same,Ducksalad plant response rating,duck salad; [10],0
same,Ducksalad plant response rating,"duck salad; Rate 62 g/ha, Postemergence (flood test species), scale of 0 to 10 where 0 is no effect and 10 is complete control",0
same,Ducksalad plant response rating,duck salad; [11],0
same,Wheat plant response rating,wheat; [1],0
same,Wheat plant response rating,wheat; [2],0
same,"Plant response rating, Wheat",wheat; [3],0
same,"Plant response rating, Wheat",wheat; [4],0
same,Wheat plant response rating,wheat; [5],0
same,Wheat plant response rating,wheat; [6],0
same,Wheat plant response rating,wheat; [7],0
same,Giant foxtail plant response rating,giant foxtail; [1],1
same,Giant foxtail plant response rating,giant foxtail; [2],4
same,"Plant response rating, Giant foxtail",giant foxtail; [3],0
same,"Plant response rating, Giant foxtail",giant foxtail; [4],0
same,Giant foxtail plant response rating,giant foxtail; [5],0
same,Giant foxtail plant response rating,giant foxtail; [6],2
same,Giant foxtail plant response rating,giant foxtail; [8],0
same,Giant foxtail plant response rating,giant foxtail; [7],0
same,B. signalgrass plant response rating,"surinam grass; Postemergence, Rate 250 g/ha, scale 0 to 10, 0 no effect, 10 complete control",0
same,B. signalgrass plant response rating,surinam grass; [2],0
same,"Plant response rating, B. signalgrass",surinam grass; [3],0
same,"Plant response rating, B. signalgrass",surinam grass; [4],0
same,B. signalgrass plant response rating,surinam grass; [5],0
same,B. signalgrass plant response rating,surinam grass; [6],0
same,B. signalgrass plant response rating,surinam grass; [8],0
same,B. signalgrass plant response rating,surinam grass; [7],0
